Results from PMC12677653, “Inhibition of Tumor Lipogenesis and Growth by Peptide‐Based Targeting of SREBP Activation” (Advanced Science, 2025).

Key:
[1] = tested on: Insig1 S207 phosphorylation; assay: Immunoblot of Insig1 S207 phosphorylation, HCT116; type: cell-based, human; conditions: HCT116 cells, peptide 15 μM 1 h before IGF1 100 ng/mL
Method: Cellular proteins were extracted using ice‐cold lysis buffer [50 mM Tris‐HCl (pH 7.5), 150 mM NaCl, 0.1% SDS, 1% Triton X‐100, 1 mM DTT, 0.5 mM EDTA] supplemented with protease inhibitor cocktail (Roche) and phosphatase inhibitors (Bimake). Following lysis, cell extracts were centrifuged at 13400 × g for 15 min at 4 °C to remove cellular debris. The clarified supernatants were then incubated with primary antibodies overnight at 4 °C with gentle rotation. For Flag‐tagged protein immunoprecipitation, Flag M2 magnetic beads (Sigma) were added to the lysate‐antibody mixture and incubated for an additional 4 h at 4 °C. The immunocomplexes were washed three times with lysis buffer under stringent conditions (5 min per wash with rotation). Finally, the precipitated proteins were eluted and analyzed by immunoblotting as previously described.^[ [35] ^]
h) HCT116 cells were pretreated with Insig1/2 loop1 peptide (15 μM) for 1 h before IGF1 (100 ng ml⁻¹) stimulation.

[2] = tested on: SREBP1 activity; assay: SRE luciferase assay; type: cell-based, human; conditions: Huh7 cells, peptide 15 µM 1 h, IGF1 100 ng/mL 14 h, normalized to β-galactosidase, n = 3
[3] = tested on: Hep3B cells; assay: Cell proliferation, Hep3B; type: cell-based, human; conditions: peptide 25 μM 1 h, IGF1 100 ng/mL 72 h, automated cell counting, n = 3
Method: Cells were seeded in 96‐well plates at a density of 5000 cells per well in 100 µL complete growth medium. Following a 24‐hour incubation period (37 °C, 5% CO2) to permit cell adherence, the culture medium was replaced with fresh low serum contained complete medium containing either Insig1/2 loop1 peptide (0–100 µM concentration range) or PBS. Cells were maintained under these conditions for 72 hours. After treatment, the culture medium was carefully aspirated, and cells were washed twice with 200 µL phosphate‐buffered saline (PBS, pH 7.4). Fixed was performed using 4% paraformaldehyde (100 µL/well) for 15 min at room temperature, followed by three PBS washes (200 µL/well) to remove residual fixative. 0.1% (w/v) crystal violet staining solution was prepared by dissolving crystal violet powder in 10% ethanol, followed by filtration through a 0.22 µm membrane. Each well received 80 µL of staining solution and was incubated for 15 min at room temperature, protected from light. […] Plates were agitated at 200 rpm for 10 min to ensure complete dissolution before measuring absorbance at 582 nm using a microplate reader. […]
g) Cell proliferation was assessed by automated cell counting after 72 h of IGF1 stimulation (100 ng ml⁻¹) in Hep3B cells pretreated with Insig1/2 loop 1 peptide (25 μM) for 1 h.

[4] = design: species or system ICR male mice; conditions: mouse, in vivo, iv, 10 mg/kg
Method: Figure 2 LNPs with a 1:1 ratio of TAT to cRGD effectively accumulate in tumor tissues. a) Schematic illustration of LNP composition. b,c) Biodistribution analysis of differently sized LNPs in Huh7 tumor‐bearing BALB/c‐nude mice (n = 3). (b) In vivo fluorescence imaging at 8, 12, 24, and 48 h post‐intravenous injection (10 mg kg^−1). The arrows indicate the tumor site. (c) Ex vivo fluorescence imaging of tumors and major organs harvested 48 h post‐injection. d,e) Optimization of TAT/cRGD peptide coating ratios for tumor‐targeted LNPs (n = 3). (d) In vivo fluorescence imaging at 12, 24, and 48 h post‐injection. The arrows indicate the tumor site. (e) Ex vivo fluorescence imaging of tumors and organs at 48 h. f) Pharmacokinetic profile of LNP@Insig1/2 loop 1 peptide versus free peptide (Insig1/2 loop 1 peptide) following intravenous administration in ICR mice (n = 3, 10 mg kg^−1). Plasma concentration‐time curves were quantified, and pharmacokinetic parameters were calculated: AUC (0–t) (h·ng mL^−1) and AUC (0–∞) (h·ng mL^−1). Data are expressed as mean ± SD (n = 3). Statistical significance was determined by one‐way analysis of variance (ANOVA). * p < 0.05, ** p < 0.01, *** p < 0.001, **** p < 0.0001, ns, no significance. TEXT PRINTED IN THE PICTURE: (f) Peptide: Tlast (h): 0.500±0; T1/2 (h): 0.084±0.0143; AUC(0-t) (h*ng/mL): 326±71.8; AUC(0-∞)(h*ng/mL): 331±73.0; Cl(L/kg/min): 0.518±0.109 | (f) LNP@Insig1/2 loop1 peptide: Tlast (h): 5.00±1.155; T1/2 (h): 0.724±0.183; AUC(0-t) (h*ng/mL): 4928±1425; AUC(0-∞)(h*ng/mL): 4955±1422; Cl(L/kg/min): 0.0337±0.0191 DOUBTS OF THE COPYIST ABOUT THIS PICTURE: Peptide, T1/2 (h): 0.084±0.0143, small print, 8 or 6 and 3 or 5 not certain / Peptide, AUC(0-t): 326±71.8, small print, 6 or 8 not certain / Peptide, AUC(0-∞): 331±73.0, small print, 3 or 8 not certain / Peptide, Cl: 0.518±0.109, small print, 8 and 9 not certain / LNP@Insig1/2 loop1 peptide, T1/2 (h): 0.724±0.183, small print, 8 and 3 not certain / LNP@Insig1/2 loop1 peptide, AUC(0-t): 4928±1425, small print, 9, 8 and 5 not certain / LNP@Insig1/2 loop1 peptide, AUC(0-∞): 4955±1422, small print, 9 and 5 not certain / LNP@Insig1/2 loop1 peptide, Cl: 0.0337±0.0191, small print, 3 and 9 not certain
The pharmacokinetic assay of Insig1/2 loop 1 peptide and LNP@ Insig1/2 loop 1 peptide was performed in ICR male mice. The male mice were administered intravenously (iv) at a dose of 10 mg kg^−1. Then, blood samples were collected into tubes containing EDTA at 0.083, 0.25, 0.5, 1, 2, 4, 8, 24 h (iv) after dosing. After centrifugation at 6000 rpm for 10 min at 4 °C, the obtained plasma samples were stored at ‐20 °C. Subsequently, the plasma samples were analyzed by liquid (LC‐MS/MS) chromatography‐tandem mass spectrometry analysis.

In the case of “RKKRRQRRRLYPCIDSHLGEPHKFKRE [Insig1/2 loop 1 peptide]”, the “Insig1 S207 phosphorylation” value [1] is reported as “inhibited”, the “SREBP1 activity (SRE luciferase)” value [2] is reported as “markedly inhibited” and the “IGF1-induced increase in proliferation” value [3] is reported as “inhibited”. The “AUC(0-t)” value [4] was 326 ± 71.8 ng·h/mL, the “AUC(0-∞)” value [4] was 331 ± 73.0 ng·h/mL and the Cl [4] was 518 ± 109 mL/min/kg. It also gave a Tlast [4] of 0.500 ± 0 h.
